Test results published in ChEMBL document CHEMBL4428048, “Discovery of Novel Polo-Like Kinase 1 Polo-Box Domain Inhibitors to Induce Mitotic Arrest in Tumor Cells” (J Med Chem, 2016).
One block for each molecule: values may come before it. Active and inactive are the calls of the source. The rule behind the calls is not given here.

Columns and labels:
[1] = biological target: Serine/threonine-protein kinase PLK2 (Homo sapiens, UniProt Q9NYY3); assay: Binding affinity to GST-tagged PLK2 PBD (355 to 685 residues) (unknown origin) by NT-647 dye-based microscale thermophoresis analysis
HeLa [2] = assay: Induction of mitotic arrest in human HeLa cells assessed as increase in level of 4N DNA cells at 30 uM after 24 hrs by propidium iodide staining-based FACS analysis; format: functional, cell-based
HeLa [3] = assay: Induction of mitotic arrest in human HeLa cells assessed as increase in level of 4N DNA cells after 24 hrs by propidium iodide staining-based FACS analysis; format: functional, cell-based
HeLa [4] = assay: Induction of mitotic arrest in human HeLa cells by propidium iodide staining-based FACS analysis; format: functional, cell-based
HeLa [5] = assay: Growth inhibition of human HeLa cells at 50 uM after 72 hrs by MTT assay relative to control; format: functional; conditions: read-out: GI
RKO [6] = assay: Growth inhibition of human RKO cells at 50 uM after 72 hrs by MTT assay relative to control; format: functional; conditions: read-out: GI
U2OS [7] = assay: cells; conditions: Homo sapiens, 72 h
Description: Growth inhibition of human U2OS cells after 72 hrs by MTT assay

RKO [8] = assay: cells; conditions: Homo sapiens, 72 h
Description: Growth inhibition of human RKO cells after 72 hrs by MTT assay

U2OS [9] = assay: Growth inhibition of human U2OS cells at 50 uM after 72 hrs by MTT assay relative to control; format: functional; conditions: read-out: GI
HeLa [10] = assay: Induction of mitotic arrest in human HeLa cells assessed as 4N DNA cells at 100 uM after 24 hrs by propidium iodide staining-based FACS analysis relative to control; format: functional
HeLa [11] = assay: Induction of mitotic arrest in human HeLa cells assessed as increase in level of 4N DNA cells at 40 uM after 24 hrs by propidium iodide staining-based FACS analysis; format: functional, cell-based
HeLa [12] = assay: cells; conditions: Homo sapiens, 72 h
Description: Growth inhibition of human HeLa cells after 72 hrs by MTT assay

HeLa [13] = assay: Induction of mitotic arrest in human HeLa cells assessed as increase in level of 4N DNA cells at 10 uM after 24 hrs by propidium iodide staining-based FACS analysis; format: functional, cell-based
RKO [14] = assay: Growth inhibition of human RKO cells at 100 uM after 72 hrs by MTT assay relative to control; format: functional; conditions: read-out: GI
[15] = biological target: Serine/threonine-protein kinase PLK1 (Homo sapiens, UniProt P53350, W414A); assay: Binding affinity to GST-tagged PLK1 PBD W414A mutant (unknown origin) by NT-647 dye-based microscale thermophoresis analysis
HeLa [16] = assay: Growth inhibition of human HeLa cells at 100 uM after 72 hrs by MTT assay relative to control; format: functional; conditions: read-out: GI
[17] = biological target: Serine/threonine-protein kinase PLK1 (Homo sapiens, UniProt P53350); assay: Binding affinity to GST-tagged PLK1 PBD (327 to 603 residues) (unknown origin) by NT-647 dye-based microscale thermophoresis analysis
RKO [18] = assay: Growth inhibition of human RKO cells at 20 uM after 72 hrs by MTT assay relative to control; format: functional; conditions: read-out: GI
U2OS [19] = assay: Growth inhibition of human U2OS cells at 20 uM after 72 hrs by MTT assay relative to control; format: functional; conditions: read-out: GI
HeLa [20] = assay: Induction of mitotic arrest in human HeLa cells assessed as increase in level of 4N DNA cells at 5 uM after 24 hrs by propidium iodide staining-based FACS analysis; format: functional, cell-based
U2OS [21] = assay: Growth inhibition of human U2OS cells at 100 uM after 72 hrs by MTT assay relative to control; format: functional; conditions: read-out: GI

Sequence of Serine/threonine-protein kinase PLK2 (Q9NYY3 whole entry, the tested form may be a part): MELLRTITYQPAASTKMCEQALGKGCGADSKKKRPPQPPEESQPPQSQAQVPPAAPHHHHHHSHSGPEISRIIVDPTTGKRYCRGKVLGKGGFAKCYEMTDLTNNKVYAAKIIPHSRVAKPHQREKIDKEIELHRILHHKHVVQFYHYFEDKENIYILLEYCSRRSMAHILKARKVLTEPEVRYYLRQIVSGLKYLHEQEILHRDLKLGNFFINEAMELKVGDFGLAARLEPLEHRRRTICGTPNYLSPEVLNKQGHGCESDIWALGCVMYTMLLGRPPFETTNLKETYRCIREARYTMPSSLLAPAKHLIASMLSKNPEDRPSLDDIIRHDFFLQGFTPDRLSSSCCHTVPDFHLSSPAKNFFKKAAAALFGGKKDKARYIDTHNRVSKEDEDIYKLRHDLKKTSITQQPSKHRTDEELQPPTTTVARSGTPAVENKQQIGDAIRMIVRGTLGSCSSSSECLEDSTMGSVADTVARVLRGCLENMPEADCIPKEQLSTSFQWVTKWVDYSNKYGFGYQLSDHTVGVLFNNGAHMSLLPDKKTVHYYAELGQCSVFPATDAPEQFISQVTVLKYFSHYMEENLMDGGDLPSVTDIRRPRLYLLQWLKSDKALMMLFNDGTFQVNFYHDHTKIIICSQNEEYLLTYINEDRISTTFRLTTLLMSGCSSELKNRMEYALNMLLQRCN
Sequence of Serine/threonine-protein kinase PLK1 (Homo sapiens, UniProt P53350) (P53350 whole entry, the tested form may be a part): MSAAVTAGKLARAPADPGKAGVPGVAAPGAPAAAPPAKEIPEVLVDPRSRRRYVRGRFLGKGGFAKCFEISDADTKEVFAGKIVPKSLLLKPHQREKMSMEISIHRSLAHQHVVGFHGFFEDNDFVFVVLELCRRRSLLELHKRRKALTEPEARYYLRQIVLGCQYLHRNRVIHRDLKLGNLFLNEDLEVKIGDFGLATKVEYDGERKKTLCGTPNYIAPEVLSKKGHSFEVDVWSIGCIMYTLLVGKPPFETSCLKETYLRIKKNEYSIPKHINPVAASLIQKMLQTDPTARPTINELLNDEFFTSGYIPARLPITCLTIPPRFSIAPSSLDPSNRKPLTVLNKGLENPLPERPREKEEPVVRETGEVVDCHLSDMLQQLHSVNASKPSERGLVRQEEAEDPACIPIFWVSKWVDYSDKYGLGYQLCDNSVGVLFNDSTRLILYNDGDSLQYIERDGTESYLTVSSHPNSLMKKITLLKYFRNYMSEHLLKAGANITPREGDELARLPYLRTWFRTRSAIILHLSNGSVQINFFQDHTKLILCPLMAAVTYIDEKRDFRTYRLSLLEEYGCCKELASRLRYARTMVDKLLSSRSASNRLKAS
Sequence of Serine/threonine-protein kinase PLK1 (Homo sapiens, UniProt P53350, W414A) (P53350 2-603 W414A limits assumed): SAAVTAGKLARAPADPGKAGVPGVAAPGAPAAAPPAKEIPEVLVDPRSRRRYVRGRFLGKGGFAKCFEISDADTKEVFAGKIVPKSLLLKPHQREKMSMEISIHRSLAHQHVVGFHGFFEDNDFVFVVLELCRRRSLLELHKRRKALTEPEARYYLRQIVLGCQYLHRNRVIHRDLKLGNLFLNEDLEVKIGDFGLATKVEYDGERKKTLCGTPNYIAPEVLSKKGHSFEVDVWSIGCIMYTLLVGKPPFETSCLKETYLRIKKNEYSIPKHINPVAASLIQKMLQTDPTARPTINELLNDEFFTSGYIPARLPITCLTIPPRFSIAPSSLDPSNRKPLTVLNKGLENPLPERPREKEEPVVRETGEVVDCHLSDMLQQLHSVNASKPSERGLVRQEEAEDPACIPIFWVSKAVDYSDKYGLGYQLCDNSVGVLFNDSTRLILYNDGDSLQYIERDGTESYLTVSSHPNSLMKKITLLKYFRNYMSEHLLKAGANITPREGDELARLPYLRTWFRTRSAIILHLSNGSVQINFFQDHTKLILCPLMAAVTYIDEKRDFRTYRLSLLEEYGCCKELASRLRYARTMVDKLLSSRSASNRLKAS

EC50 (HeLa [3]): 5.3 µM
EC50 (HeLa [12]): 15 µM
Structure (SMILES): CCn1c2ccccc2c2cc(/C=N/NC(=O)c3ccccc3[N+](=O)[O-])ccc21
Activity (HeLa [13]): Active
inhibition of growth at 50 µM (RKO [6]): 43%
inhibition of growth at 50 µM (U2OS [9]): 41.7%

EC50 (RKO [8]): 10 µM
EC50 (HeLa [3]): 4.4 µM
EC50 (HeLa [12]): 15.6 µM
Structure (SMILES): CCn1c2ccccc2c2cc(/C=N/NC(=O)c3cccc(Cl)c3)ccc21
Activity (HeLa [13]): Active
inhibition of growth at 50 µM (U2OS [9]): 42.2%

Kd [1]: 197 µM
Kd [15]: 412 µM
EC50 (HeLa [3]): 25.6 µM
EC50 (U2OS [7]): 37.8 µM
Kd [17]: 44.2 µM
Structure (SMILES): Cc1ccccc1OCC(=O)N/N=C/c1ccc2c(c1)OCCO2
inhibition of growth at 100 µM (RKO [14]): 35.3%
Activity (HeLa [2]): Active
inhibition of growth at 100 µM (HeLa [16]): 40.2%

EC50 (HeLa [3]): 18.7 µM
Structure (SMILES): Cc1ccc2nc(C)cc(SCC(=O)N/N=C/c3ccc(Cl)cc3)c2c1
inhibition of growth at 100 µM (RKO [14]): 34%
Activity (HeLa [2]): Active
inhibition of growth at 100 µM (HeLa [16]): 36.7%
inhibition of growth at 100 µM (U2OS [21]): 25.5%

The remaining lines, values behind:

Structure (SMILES): Cc1ccc(/C(=N/S(=O)(=O)c2ccccc2)NC(=S)Nc2ccc([N+](=O)[O-])cc2)cc1
Kd [1]: 159 µM
Activity (HeLa [2]): Active
Activity (HeLa [3]): Dose-dependent effect
EC50 (HeLa [3]): 21.1 µM

Structure (SMILES): CC1=C/C(=N/OC(=O)c2ccccc2C)C(C)=CC1=O
EC50 (HeLa [4]): 15 µM

Structure (SMILES): CCN(CC)c1ccc(NC(=O)/C=C/c2cccc3ccccc23)cc1
Activity (HeLa [2]): Active
inhibition of growth at 50 µM (HeLa [5]): 31.2%
inhibition of growth at 50 µM (RKO [6]): 34%
EC50 (U2OS [7]): 18.1 µM

Structure (SMILES): O=C(CCn1c2ccccc2c2ccccc21)N/N=C/c1cc(Cl)cc(Cl)c1
Kd [1]: 210 µM
Activity (HeLa [2]): Active
EC50 (RKO [8]): 19.2 µM
inhibition of growth at 50 µM (HeLa [5]): 45.7%
EC50 (HeLa [3]): 20.4 µM
inhibition of growth at 50 µM (U2OS [9]): 48.8%

Structure (SMILES): CCc1ccc(/C=N/NC(=O)c2sc3cc(Cl)ccc3c2Cl)s1
Activity (HeLa [2]): Active
EC50 (HeLa [3]): 8.6 µM

Structure (SMILES): CC1=CC(=O)C(C(C)C)=C/C1=N/OC(=O)c1ccccc1C
Kd [1]: 87.3 µM
Activity (HeLa [10]): 36%

Structure (SMILES): CCCc1oc2ccc(NS(=O)(=O)c3cccs3)cc2c1C(=O)OCC
Activity (HeLa [11]): Active
inhibition of growth at 50 µM (HeLa [5]): 31.8%
EC50 (HeLa [3]): 44.8 µM
inhibition of growth at 50 µM (RKO [6]): 39.4%

Structure (SMILES): O=C(N/N=C/c1ccc(Br)cc1)c1n[nH]c2c1CCCC2
inhibition of growth at 20 µM (RKO [18]): 37%
inhibition of growth at 20 µM (U2OS [19]): 59.8%
EC50 (HeLa [12]): 2.6 µM
Activity (HeLa [20]): Active
